{"source": "ChEMBL document CHEMBL5131432", "about": "“Novel 2,4-disubstituted quinazoline analogs as antibacterial agents with improved cytotoxicity profile: Modification of the benzenoid part” (Bioorg Med Chem Lett, 2022)", "key": {"[1]": {"test_system": "Mycolicibacterium smegmatis", "test": "Antibacterial activity against Mycobacterium smegmatis mc2 155 assessed as bacterial growth inhibition", "type": "functional"}, "Escherichia coli [2]": {"test_system": "Escherichia coli", "test": "Antibacterial activity against Escherichia coli harbouring TolC-deficient mutant assessed as bacterial growth inhibition", "type": "functional"}, "Staphylococcus aureus [3]": {"test_system": "Staphylococcus aureus", "test": "Antibacterial activity against methicillin-resistant Staphylococcus aureus N315 assessed as bacterial growth inhibition", "type": "functional"}, "Enterococcus faecium": {"test_system": "Enterococcus faecium", "test": "Antibacterial activity against Enterococcus faecium DSM-20477 assessed as bacterial growth inhibition", "type": "functional"}, "Staphylococcus aureus [4]": {"test_system": "Staphylococcus aureus", "test": "Antibacterial activity against methicillin-sensitive Staphylococcus aureus Newman assessed as bacterial growth inhibition", "type": "functional"}, "Escherichia coli [5]": {"test_system": "Escherichia coli", "test": "Antibacterial activity against Escherichia coli K12 harbouring TolC-deficient mutant assessed as bacterial growth inhibition", "type": "functional"}, "Enterococcus faecalis": {"test_system": "Enterococcus faecalis", "test": "Antibacterial activity against Enterococcus faecalis DSM-20478 assessed as bacterial growth inhibition", "type": "functional"}, "[6]": {"test_system": "Mycolicibacterium smegmatis", "test": "Antibacterial activity against Mycobacterium smegmatis assessed as bacterial growth inhibition", "type": "functional"}, "Escherichia coli [7]": {"test_system": "Escherichia coli", "test": "Antibacterial activity against wild type Escherichia coli DSM-11116 assessed as bacterial growth inhibition", "type": "functional"}, "Streptococcus pneumoniae [8]": {"test_system": "Streptococcus pneumoniae", "test": "Antibacterial activity against penicillin-resistant Streptococcus pneumoniae DSM-11865 assessed as bacterial growth inhibition", "type": "functional"}, "Streptococcus pneumoniae [9]": {"test_system": "Streptococcus pneumoniae", "test": "Antibacterial activity against Streptococcus pneumoniae DSM-20566 assessed as bacterial growth inhibition", "type": "functional"}, "Staphylococcus aureus [10]": {"test_system": "Staphylococcus aureus", "test": "Antibacterial activity against methicillin-resistant and vancomycin-intermediate Staphylococcus aureus Mu50 assessed as bacterial growth inhibition", "type": "functional"}, "[11]": {"test": "Cytotoxicity against human HepG2 cells assessed as inhibition of cell growth", "type": "toxicity, cell-based"}, "[12]": {"test": "Selectivity index, ratio of IC50 for cytotoxicity against human HepG2 cells to MIC for antibacterial activity against Enterococcus faecalis DSM-20478", "type": "toxicity, cell-based"}, "[13]": {"test": "Selectivity index, ratio of IC50 for cytotoxicity against human HepG2 cells to MIC for antibacterial activity against methicillin-sensitive Staphylococcus aureus Newman", "type": "toxicity, cell-based"}, "[14]": {"test": "Selectivity index, ratio of IC50 for cytotoxicity against human HepG2 cells to MIC for antibacterial activity against Streptococcus pneumoniae DSM-20566", "type": "toxicity, cell-based"}, "[15]": {"test": "Selectivity index, ratio of IC50 for cytotoxicity against human HepG2 cells to MIC for antibacterial activity against Enterococcus faecium DSM-20477", "type": "toxicity, cell-based"}}, "data": [{"smiles": "CCCCNc1nc(SCCCC)nc2ccccc12", "values": [{"measurement": "MIC", "setting": "[1]", "result": 8, "unit": "µg/mL"}, {"measurement": "MIC", "setting": "Escherichia coli [2]", "result": 2, "unit": "µg/mL"}, {"measurement": "MIC", "setting": "Staphylococcus aureus [3]", "result": 8, "unit": "µg/mL"}, {"measurement": "MIC", "setting": "Enterococcus faecium", "result": 4, "unit": "µg/mL"}, {"measurement": "MIC", "setting": "Staphylococcus aureus [4]", "result": 8, "unit": "µg/mL"}, {"measurement": "MIC", "setting": "Escherichia coli [5]", "result": 2, "unit": "µg/mL"}, {"measurement": "MIC", "setting": "Enterococcus faecalis", "result": 4, "unit": "µg/mL"}, {"measurement": "MIC", "setting": "[6]", "result": 2, "unit": "µg/mL"}, {"measurement": "MIC", "setting": "Escherichia coli [7]", "result": "> 128", "unit": "µg/mL"}, {"measurement": "MIC", "setting": "Streptococcus pneumoniae [8]", "result": 3, "unit": "µg/mL"}, {"measurement": "MIC", "setting": "Streptococcus pneumoniae [9]", "result": 4, "unit": "µg/mL"}, {"measurement": "MIC", "setting": "Staphylococcus aureus [10]", "result": 4, "unit": "µg/mL"}]}, {"smiles": "CCCCNc1nc(SCCCC)nc2ccc(-c3cccc(O)c3)cc12", "values": [{"measurement": "MIC", "setting": "[1]", "result": 16, "unit": "µg/mL"}, {"measurement": "IC50", "setting": "[11]", "result": 15.3, "unit": "µg/mL"}, {"measurement": "selectivity ratio", "setting": "[12]", "result": 3}, {"measurement": "MIC", "setting": "Staphylococcus aureus [3]", "result": "> 128", "unit": "µg/mL"}, {"measurement": "selectivity ratio", "setting": "[13]", "result": 3}, {"measurement": "MIC", "setting": "Enterococcus faecium", "result": 4, "unit": "µg/mL"}, {"measurement": "selectivity ratio", "setting": "[14]", "result": 3}, {"measurement": "MIC", "setting": "Staphylococcus aureus [4]", "result": 2, "unit": "µg/mL"}, {"measurement": "MIC", "setting": "Escherichia coli [5]", "result": "> 128", "unit": "µg/mL"}, {"measurement": "MIC", "setting": "Enterococcus faecalis", "result": 2, "unit": "µg/mL"}, {"measurement": "MIC", "setting": "Escherichia coli [7]", "result": "> 128", "unit": "µg/mL"}, {"measurement": "MIC", "setting": "Streptococcus pneumoniae [8]", "result": 16, "unit": "µg/mL"}, {"measurement": "MIC", "setting": "Streptococcus pneumoniae [9]", "result": 1, "unit": "µg/mL"}, {"measurement": "selectivity ratio", "setting": "[15]", "result": 3}, {"measurement": "MIC", "setting": "Staphylococcus aureus [10]", "result": "> 128", "unit": "µg/mL"}]}]}
